Measurements published in US6538028B1, “Method for inhibiting complement activation” (Vanderbilt University, priority 2000, dated 2003).
“And” between values parts separate entries of the source, which are not always exact repeats. Identical values can stand only once. Like-named read-outs stand apart in the source and are kept apart here. Marks after values point to notes of the source that are not given here.

Tests used:
[1] = test system: piglet lungs perfused with human blood
Procedure: […] piglets (4-6 kg) were used in an established in situ ex vivo isolated lung perfusion model. Piglet lungs were perfused with unmodified human blood or blood treated with either aurintricarboxylic acid (ATA, 0.5 mg/mL; GPIb inhibitor), SC52012A (SC, 0.2 μg/mL; GPIIb/IIIa antagonist, G.D. Searle & Co. of Chicago, Ill.), or both. Thus, experimental groups received either 500 mg of ATA, 200 μg of SC52012A, or both drugs added to fresh human blood perfusate (pooled from three donors) prior to lung perfusion, while control groups received unmodified blood.
Pulmonary vascular resistance (PVR) was calculated from pulmonary artery land vein pressures and flow. Pulmonary vein effluent was collected serially for comparison of complement activation (C3a), mast cell activation (histamine) and thromboxane production (TXB2) between groups. Survival endpoints were loss of transpulmonary flow, loss of oxygenation across the lungs, frank tracheal edema, and loss of perfusate volume (˜1L) into lung parenchyma.

complement (C3a, C5b-9) = details: for C3a Mean: mean of two samples; for C3a / C5b-9: single sample
Procedure: Platelet poor plasma (PPP—Example 4) and platelet rich plasma (PRP—Example 5) was prepared from human heparinized blood. Human plasma was treated with ATA (0.5 mg/ml), SC (0.5 μg/ml), ATA+SC, bivalirudin (HIRULOG®, 0.1 g/L), or water (negative control) and then incubated in presence of zymosan (10 mg/mL) or cobra venom factor (CVF, 1 or 5 U/mL) to activate complement (negative control is water), for one hour at 37° C. with shaking. Then, the samples were subjected to centrifugation at 10,000 g for 45 minutes. The supernatant was then frozen in small aliquots at −70° C. C3a and C5b-9 levels were then assayed using commercial ELISA kits (Quidel).

[2] = test system: piglet lungs perfused with heparinized human blood
Procedure: In an established in situ, ex vivo model, piglet lungs were perfused with either heparinized (3,000 U/L) human blood or with blood additionally pretreated with 140 mg/L of bivalirudin (a semisynthetic analogue of hirudin). Pulmonary vein effluent was collected serially for measurement of complement activation (C3a), mast cell activation (histamine), and thrombin formation (F1+2). Survival endpoints were loss of transpulmonary blood flow, loss of oxygenation across the lungs, and sequestration of perfusate volume (˜1 L) into the lung. Statistical comparisons were made using the 2-tailed t-test.

[3] = PPP, CVF 1U, listed as HIRULOG ®

Question: With `O=C(O)C1=CC(=C(c2ccc(O)c(C(=O)O)c2)c2ccc(O)c(C(=O)O)c2)C=CC1=O` [ATA, aurintricarboxylic acid] as the compound, how does the “ΔC3a, 1 min, μg/mL (Mean ± SEM)” value ([1]; 1 min, pulmonary vein effluent) read?
Answer: 0.30* μg/mL

Question: And the “Platelet sequestration at 10 min” value ([1]; 10 min, controls 89%)?
Answer: 51%

Question: And the “ΔC3a, 10 min, μg/mL (Mean ± SEM)” value ([1]; 10 min, pulmonary vein effluent)?
Answer: 1.81 µg/mL

Question: And the median survival ([1]; control 12 min)?
Answer: 25 min

Question: And the “Median Survival in min (95% conf int)” value ([1]; pig lung perfused with human blood, ATA 0.5 mg/mL, SC 0.2 μg/mL)?
Answer: 25* min

Question: What does the source list for bivalirudin?
Answer: C5b-9 Mean (complement (C3a, C5b-9); PPP, CVF 1U): 917 ng/mL; C3a Mean (complement (C3a, C5b-9); PPP, CVF 1U): 1350 ng/mL; C3a (complement (C3a, C5b-9); [3]): 1250 ng/mL and 1450 ng/mL; C5b-9 (complement (C3a, C5b-9); [3]): 890 ng/mL and 943 ng/mL; C5b-9 Mean (complement (C3a, C5b-9); PPP, water (no activator)): 26 ng/mL; C3a Mean (complement (C3a, C5b-9); PPP, water (no activator)): 548 ng/mL; C5b-9 (complement (C3a, C5b-9); PPP, water (no activator)): 26 ng/mL; C3a (complement (C3a, C5b-9); PPP, water (no activator), 1 h 37° C., listed as HIRULOG ®): 590 ng/mL and 505 ng/mL; C5b-9 Mean (complement (C3a, C5b-9); PRP, CVF 1U): 842 ng/mL; C3a Mean (complement (C3a, C5b-9); PRP, CVF 1U): 1650 ng/mL; C5b-9 (complement (C3a, C5b-9); PRP, CVF 1U): 842 ng/mL; C3a (complement (C3a, C5b-9); PRP, CVF 1U, listed as HIRULOG ®): 1800 ng/mL and 1500 ng/mL; C5b-9 Mean (complement (C3a, C5b-9); PRP, water (no activator)): 126 ng/mL; C3a Mean (complement (C3a, C5b-9); PRP, water (no activator)): 435 ng/mL; C5b-9 (complement (C3a, C5b-9); PRP, water (no activator)): 126 ng/mL; C3a (complement (C3a, C5b-9); PRP, water (no activator), 1 h 37° C., listed as HIRULOG ®): 490 ng/mL and 380 ng/mL; thrombin production limited (as measured by F1+2) [2]: more than 90%; ΔC3a 1 min μg/ml (± SEM) ([2]; 1 min): 0.82 (0.8)* μg/ml; PVR cm H2O/mL/min 5 min (± SEM) ([2]; 5 min): 0.16 (.05)* cm H2O/mL/min; Δ histamine 10 min nM (± SEM) ([2]; 10 min): 21 (4)* nM; ΔC3a 10 min μg/ml (± SEM) ([2]; 10 min): 1.97 (1) μg/ml; ΔF1 + 2 10 min nM (± SEM) ([2]; 10 min, thrombin formation): 0.5 (0.8)* nM; Survival Min (± SEM) ([2]; bivalirudin 140 mg/L in heparinized human blood): 77 (22)* Min; mean survival ([2]; control 8 minutes): 77 min; Complement activation ([2]; in words): significantly blunted; histamine release ([2]; in words): significantly decreased; intrapulmonary platelet sequestration ([2]; in words): significantly blunted; rise in PVR ([2]; in words): significantly decreased
